Data reported in US9834558B2, “Substituted bridged urea analogs as sirtuin modulators” (GLAXOSMITHKLINE LLC, priority 2013, dated 2017).
Like-named read-outs stand apart in the source and are kept apart here.

Biological target: T1, SIRT1 (Homo sapiens, UniProt Q96EB6)
T1 sequence (Q96EB6 1-747): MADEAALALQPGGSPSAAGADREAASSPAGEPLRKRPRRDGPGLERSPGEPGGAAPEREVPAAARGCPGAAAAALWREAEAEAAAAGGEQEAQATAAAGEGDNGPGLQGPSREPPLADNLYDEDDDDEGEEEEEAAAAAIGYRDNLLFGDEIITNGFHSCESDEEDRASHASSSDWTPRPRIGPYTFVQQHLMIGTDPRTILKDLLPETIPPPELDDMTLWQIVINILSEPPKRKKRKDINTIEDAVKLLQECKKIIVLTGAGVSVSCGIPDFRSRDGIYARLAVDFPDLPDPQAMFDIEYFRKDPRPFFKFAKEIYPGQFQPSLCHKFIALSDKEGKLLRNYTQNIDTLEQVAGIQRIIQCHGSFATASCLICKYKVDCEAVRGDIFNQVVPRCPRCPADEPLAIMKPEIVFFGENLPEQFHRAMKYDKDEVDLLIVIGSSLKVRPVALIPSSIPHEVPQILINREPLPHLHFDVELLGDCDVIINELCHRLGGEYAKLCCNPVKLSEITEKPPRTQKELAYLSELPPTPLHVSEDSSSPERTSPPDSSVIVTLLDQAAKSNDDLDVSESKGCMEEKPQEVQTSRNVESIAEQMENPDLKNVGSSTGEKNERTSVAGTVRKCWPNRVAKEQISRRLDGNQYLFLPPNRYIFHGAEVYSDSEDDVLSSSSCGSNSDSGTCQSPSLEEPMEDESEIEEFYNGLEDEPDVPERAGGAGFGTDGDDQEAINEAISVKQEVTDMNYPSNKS
Experiment: Trp mass spectrometry assay of SIRT1 activation
Format: biochemical
Settings: for TRP Activity (EC1.5): EC1.5 = concentration that results in 150% activation of SIRT1
In short: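 N-terminal His-tagged human SIRT1 (10 nM, E. coli BL21(DE3)) with 0.5 μM Ac-RHKK(Ac)W-NH2 peptide and 120 μM βNAD+, 25 min at 25 °C in HEPES pH 7.5, formic acid stop. OAADPR or deacetylated peptide quantified by mass spectrometry; EC1.5 (50% activity increase over control) and Percent Maximum Activation reported.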

[1] = Trp mass spectrometry assay, concentration of test compound giving 150% activation of SIRT1
[2] = Trp mass spectrometry assay, EC1.5 = concentration of test compound that results in 150% activation of SIRT1
[3] = concentration giving 150% activation of SIRT1, Trp peptide substrate
[4] = Trp peptide assay, maximum activity relative to control (100%), read-out: TRP MAX RESP (percent maximum fold activation)
[5] = Trp mass spectrometry assay, percent maximum fold activation of SIRT1, read-out: Tryp % Fold Act

N#Cc1cccc(-c2ccc3c(n2)N(C(=O)Nc2cnccn2)[C@H]2CCCN3C2)c1 [Example 351]
Tryp AVG EC1.5 (μM) [1]: A (A (EC1.5<1 μM))

O=C(Nc1cccc(-c2cnco2)n1)N1c2nc(-c3cccc(C(F)(F)F)c3)ccc2N2CC[C@H]1C2 [Example 588]
Tryp AVG EC1.5 (μM) [2]: A (A (EC1.5<1 μM))

COc1cc(NC(=O)N2c3nc(-c4cccc(Cl)c4)ccc3N3C[C@@H](O)[C@H]2C3)ncn1 [Example 679]
Tryp AVG EC1.5 (μM) [3]: B (B (EC1.5 1-25 μM))

O=C(Nc1ccc(Br)c(-c2cnco2)c1)N1c2nc(-c3cccc(C(F)(F)F)c3)ccc2N2CC[C@H]1C2 [Example 672]
Tryp AVG EC1.5 (μM) [3]: A (A (EC1.5<1 μM))

Cc1cc(-c2ccc3c(n2)N(C(=O)Nc2ccn(C)n2)[C@H]2CCN3C2)ccn1 [(9S)-N-(1-methyl-1H-pyrazol-3-yl)-5-(2-methylpyridin-4-yl)-1,6,8-triazatricyclo[7.2.1.0 {2,7}]dodeca-2,4,6-triene-8-carboxamide]
TRP Activity (EC1.5) (Trp peptide assay): B (B (EC1.5 1-25 μM)) | Emax [4]: > 150%

N#Cc1cncc(-c2ccc3c(n2)N(C(=O)Nc2ccccn2)[C@H]2CCCN3C2)c1 [Example 557]
Tryp AVG EC1.5 (μM) [2]: A (A (EC1.5<1 μM))

O=C(Nc1nnc(-c2cccnc2)o1)N1c2nc(-c3cccc(C(F)(F)F)c3)ccc2N2CC[C@H]1C2 [Example 721]
Tryp AVG EC1.5 (μM) [3]: A (A (EC1.5<1 μM))

O=C(Nc1ccncn1)N1c2nc(-c3cccc(C(F)(F)F)n3)ccc2N2CC[C@H]1C2 [Example 337]
Tryp AVG EC1.5 (μM) [1]: B (B (EC1.5 1-25 μM))

COc1cc(NC(=O)N2c3nc(-c4cncc(C(F)(F)F)c4)ccc3N3CCC[C@H]2C3)ncn1 [Example 394]
Tryp AVG EC1.5 (μM) [1]: A (A (EC1.5<1 μM))

O=C(Nc1ccc2c(c1)CCC2)N1c2nc(-c3cccc(C(F)(F)F)c3)ccc2N2CC[C@H]1C2 [Example 624]
Tryp AVG EC1.5 (μM) [2]: B (B (EC1.5 1-25 μM))

O=C(Nc1cccc(-c2cccnc2)c1)N1c2nc(-c3cccc(C(F)(F)F)c3)ccc2N2CC[C@H]1C2 [Example 660]
Tryp AVG EC1.5 (μM) [3]: A (A (EC1.5<1 μM))

Cc1nc(NC(=O)N2c3nc(-c4cncc(C(F)(F)F)c4)ccc3N3CCC[C@H]2C3)sc1C [Example 427]
Tryp AVG EC1.5 (μM) [2]: A (A (EC1.5<1 μM))

Cc1cc(-c2ccc3c(n2)N(C(=O)Nc2ncn(C)n2)[C@H]2CCN3C2)ccn1 [(9S)-N-(1-methyl-1H-1,2,4-triazol-3-yl)-5-(2-methylpyridin-4-yl)-1,6,8-triazatricyclo[7.2.1.0 {2,7}]dodeca-2(7),3,5-triene-8-carboxamide]
TRP Activity (EC1.5) (Trp peptide assay): C (C (EC1.5>25 μM)) | Emax [4]: > 150%

Cc1ncc(-c2ccc3c(n2)N(C(=O)Nc2cnccn2)[C@H]2CCN3C2)cn1 [(9S)-5-(2-methylpyrimidin-5-yl)-N-(pyrazin-2-yl)-1,6,8-triazatricyclo[7.2.1.0 {2,7}]dodeca-2(7),3,5-triene-8-carboxamide]
TRP Activity (EC1.5) (Trp peptide assay): B (B (EC1.5 1-25 μM)) | Emax [4]: > 150%

NS(=O)(=O)c1ccc(NC(=O)N2c3nc(-c4cccc(C(F)(F)F)c4)ccc3N3CC[C@H]2C3)cc1 [Example 643]
Tryp AVG EC1.5 (μM) [3]: A (A (EC1.5<1 μM))

COc1cc(NC(=O)N2c3nc(-c4cccc(C(F)(F)F)c4)ccc3N3C[C@@H](O)[C@H]2C3)ncn1 [Example 644]
Tryp AVG EC1.5 (μM) [3]: B (B (EC1.5 1-25 μM))

O=C(Nc1ccccn1)N1c2nc(-c3cccc(Cl)c3)ccc2N2CCC[C@H]1C2 [Example 387]
Tryp AVG EC1.5 (μM) [1]: A (A (EC1.5<1 μM))

Cc1ccc(-c2ccc3c(n2)N(C(=O)Nc2ccnc(O[C@H]4CCOC4)n2)[C@H]2CCN3C2)cn1 [(9S)-5-(6-methylpyridin-3-yl)-N-{2-[(3S)-oxolan-3-yloxy]pyrimidin-4-yl}-1,6,8-triazatricyclo[7.2.1.0 {2,7}]dodeca-2,4,6-triene-8-carboxamide]
TRP Activity (EC1.5) (Trp peptide assay): B (B (EC1.5 1-25 μM)) | Emax [4]: > 150%

Cc1cc(-c2ccc3c(n2)N(C(=O)Nc2cncc(-c4cnco4)c2)[C@H]2CCN3C2)ccn1 [Example 748]
Tryp AVG EC1.5 (μM) [3]: A (A (EC1.5<1 μM))

Cc1cc(-c2ccc3c(n2)N(C(=O)Nc2nccc(C)n2)[C@H]2CCN3C2)ccn1 [(9S)-5-(2-methylpyridin-4-yl)-N-(4-methylpyrimidin-2-yl)-1,6,8-triazatricyclo[7.2.1.0^{2,7}]dodeca-2,4,6-triene-8-carboxamide]
TRP Activity (EC1.5) (Trp peptide assay): B (B (EC1.5 1-25 μM)) | Emax [4]: > 150%

O=C(Nc1ccnc(OC[C@H](O)CO)n1)N1c2nc(-c3cccc(C(F)(F)F)c3)ccc2N2CC[C@H]1C2 [Example 818]
Tryp AVG EC1.5 (μM) [3]: A (A (EC1.5<1 μM)) | Emax (percent maximum fold activation of SIRT1, Trp peptide substrate, read-out: Tryp % Fold Act): > 150%

O=C(Nc1cnccn1)N1c2nc(-c3cncc(C(F)(F)F)c3)ccc2N2C[C@@H](O)[C@H]1C2 [Example 695]
Tryp AVG EC1.5 (μM) [3]: B (B (EC1.5 1-25 μM))

O=C1OCc2ccc(NC(=O)N3c4nc(-c5cccc(C(F)(F)F)c5)ccc4N4CC[C@H]3C4)cc21 [Example 93]
Tryp AVG EC1.5 (μM) (Trp peptide substrate, concentration giving 150% activation of SIRT1): A (A (EC1.5<1 μM))

Cc1cncc(-c2ccc3c(n2)N(C(=O)Nc2cnccn2)[C@H]2CCN3C2)c1 [(9S)-5-(5-methylpyridin-3-yl)-N-(pyrazin-2-yl)-1,6,8-triazatricyclo[7.2.1.0 {2,7}]dodeca-2(7),3,5-triene-8-carboxamide]
TRP Activity (EC1.5) (Trp peptide assay): B (B (EC1.5 1-25 μM)) | Emax [4]: > 150%

Cc1cncc(-c2ccc3c(n2)N(C(=O)Nc2cnccn2)[C@H]2CCCN3C2)c1 [Example 512]
Tryp AVG EC1.5 (μM) [2]: B (B (EC1.5 1-25 μM))

O=C(CCCC[C@@H]1SCC2NC(=O)NC21)NCCCCCC(=O)NCc1ccc(NC(=O)N2c3nc(-c4cccc(C(F)(F)F)c4)ccc3N3CCC[C@H]2C3)cc1 (stereo partly shown) [Example 430]
Tryp AVG EC1.5 (μM) [2]: A (A (EC1.5<1 μM))

CC(C)(C)OC(=O)NCc1cn(-c2cccc(NC(=O)N3c4nc(-c5cccc(C(F)(F)F)c5)ccc4N4CC[C@H]3C4)c2)nn1 [Example 605]
Tryp AVG EC1.5 (μM) [2]: A (A (EC1.5<1 μM))

Cc1cc(-c2ccc3c(n2)N(C(=O)NC2CC2)[C@H]2CCN3C2)ccn1 [(9S)-N-cyclopropyl-5-(2-methylpyridin-4-yl)-1,6,8-triazatricyclo[7.2.1.0 {2,7}]dodeca-2,4,6-triene-8-carboxamide]
TRP Activity (EC1.5) (Trp peptide assay): B (B (EC1.5 1-25 μM)) | Emax (read-out: TRP MAX RESP (percent maximum fold activation)): > 150%

Cc1ccc(-c2ccc3c(n2)N(C(=O)Nc2ccncn2)[C@H]2CCCN3C2)cn1 [Example 479]
Tryp AVG EC1.5 (μM) [2]: B (B (EC1.5 1-25 μM))

C[C@@H]1CCN(C)c2ccc(-c3cccc(CC(O)CO)c3)nc2N1C(=O)Nc1ccc(F)cn1 (stereo partly shown) [Example 356]
Tryp AVG EC1.5 (μM) [1]: A (A (EC1.5<1 μM)) | Emax [5]: > 150%

CCOc1cncc(NC(=O)N2c3nc(-c4ccnc(C)c4)ccc3N3CC[C@H]2C3)n1 [(9S)-N-(6-ethoxypyrazin-2-yl)-5-(2-methylpyridin-4-yl)-1,6,8-triazatricyclo[7.2.1.0 {2,7}]dodeca-2(7),3,5-triene-8-carboxamide]
TRP Activity (EC1.5) (Trp peptide assay): A (A (EC1.5<1 μM)) | Emax [4]: > 150%

O=C(Nc1ncccn1)N1c2nc(N3CCC[C@H](C(F)(F)F)C3)ccc2N2CCC[C@H]1C2 [(9S)-N-(pyrimidin-2-yl)-5-[(3S)-3-(trifluoromethyl)piperidin-1-yl]-1,6,8-triazatricyclo[7.3.1.0 {2,7}]trideca-2(7),3,5-triene-8-carboxamide]
TRP Activity (EC1.5) (Trp peptide assay): A (A (EC1.5<1 μM)) | Emax [4]: > 150%

O=C(Nc1ccncc1)N1c2nc(-c3cccc(C(F)(F)F)c3)ccc2N2CCC[C@H]1C2 [Example 821]
Tryp AVG EC1.5 (μM) [3]: A (A (EC1.5<1 μM))

O=C(Nc1cccc(-c2ccsc2)n1)N1c2nc(-c3cccc(C(F)(F)F)c3)ccc2N2CC[C@H]1C2 [Example 653]
Tryp AVG EC1.5 (μM) [3]: A (A (EC1.5<1 μM))

CN(C)c1cccc(-c2ccc3c(n2)N(C(=O)Nc2ccc(F)cn2)[C@H]2CCCN3C2)c1 [Example 384]
Tryp AVG EC1.5 (μM) [1]: B (B (EC1.5 1-25 μM))

O=C(NCCCc1ccncc1)N1c2nc(-c3cccc(C(F)(F)F)c3)ccc2N2CC[C@H]1C2 [Example 633]
Tryp AVG EC1.5 (μM) [3]: B (B (EC1.5 1-25 μM))

O=C(Nc1cccnc1)N1c2nc(-c3cncc(Cl)c3)ccc2N2CCC1CC2 [Example 544]
Tryp AVG EC1.5 (μM) [2]: B (B (EC1.5 1-25 μM))

COc1cc(NC(=O)N2c3nc(-c4cccc(N5CCOCC5)c4)ccc3N3CCC[C@H]2C3)ncn1 [Example 528]
Tryp AVG EC1.5 (μM) [2]: B (B (EC1.5 1-25 μM))

Cc1c(-c2ccc3c(n2)C(C(=O)Nc2ccccn2)[C@H]2CCN3C2)cnn1C (stereo partly shown) [Example 531]
Tryp AVG EC1.5 (μM) [2]: B (B (EC1.5 1-25 μM)) | Emax [5]: > 150%

COc1cc(NC(=O)N2c3nc(-c4cccc(Cl)c4)ccc3N3C[C@@H](O)[C@H]2C3)nc(OC)n1 [Example 680]
Tryp AVG EC1.5 (μM) [3]: B (B (EC1.5 1-25 μM))
